Experimental findings from patent publication US11766434B2, “Pyrimidinone derivatives as CDC7 inhibitors” (Cancer Research Technology Limited, priority 2016, dated 2023) are described below.

Assay [1] addresses Cdc7 (Homo sapiens, UniProt O00311). In words: Cdc7 cell pharmacodynamics assay Method 3: pS53MCM2 levels in SW48 cells. The arrangement: endogenous in cells; host or cells: SW48. Format: cell-based. As to conditions: 6 hours treatment, read-out: Biomarker Method 3 (pEC50) (converted). From the text:
This protocol describes a method to investigate the inhibition of Cdc7 activity by measuring pS53MCM2 levels in cells, after treatment with compounds.
• SW48 cells • RPMI 1640 (Sigma, R5886) • 10% FCS (Sera Laboratories International Ltd, EU000F Batch: 108005) • 100× L-Glutamine (Invitrogen, 25030-024) • D-Glucose Solution (10%) (Sigma, G8644) • HEPES Buffer Solution (Sigma, 83264) • Sodium Pyruvate (Sigma, S8636) • PBS (Fisger, BP399-4) • Trypsin/EDTA (Invitrogen 25300-054) • 2% BSA in PBS • Cell Extraction Buffer (Invitrogen FNN0011) • Protease inhibitor cocktail (Sigma P-2714) • PMSF 0.3M stock in DMSO (Sigma P7626) • Antibody—rabbit pMCM2 Ser53 (Bethyl #A300-756A) • Antibody—goat MCM2 (Bethyl #A300-122A) • Antibody—goat Anti Rabbit IgG HRP (Perbio Science UK Ltd 31462) • SuperSignal ELISA Pico Chemiluminescent Substrate (Perbio Science UK Ltd 37070) Method • Plate 30,000 SW48 cells per well in standard TC treated 96 well plate in 100 μL complete RPMI 1640 medium. • Allow cells to settle overnight in incubator set at 37° C. and 5% CO2. • Cell treatment: prepare a 384 well plate containing 80 μl PBS/well. The PBS should be at room temperature—to be referred to as intermediate plate. Transfer 2 μL of compound from mother plate to intermediate (daughter plate) 1:40 dilution, then 5 μL intermediate to cell (daughter) plate. • Once all cells are treated place the cells back to the incubator and incubate for 6 hours. • Dilute the capture antibody (total MCM2 #A300-122A) 1 in 250 in the required volume of PBS (5 mL per assay plate, plus 5 mL for dead volume) and add 50 μL to each well of a Hybond plate. Seal the plate and incubate at room temperature for a minimum of 2 hours. • Defrost aliquot of Invitrogen Cell Extraction Buffer (FNN0011) on ice and supplement with appropriate volume of both Sigma protease inhibitor cocktail (P-2714) and PMSF (final cone 1 mM from a 1 M stock in DMSO). • After the 6 hour cell treatment time, tap out the media from the assay plates and place them in the −80° C. freezer for at least 5 minutes. • Remove plates from freezer and add 20 μL of ice cold complete lysis buffer, with the multidrop. Incubate cells for 30 minutes at 4° C. • Add 80 μL per well 2% BSA. • Flick out the remaining liquid from the capture plate and transfer 80 μL from the lysis plate to the same wells in the capture/ELISA plate, using the Biomek. Cover with plate seal and incubate plates overnight at 4° C. • Wash plates with PBS, remove any residual remaining liquid and add 50 μL per well of pMCM2 Ser53 antibody (#A300-756A) diluted 1 in 100 in 2% BSA. Cover plate and incubate at room temperature for 2 hours with gentle shaking. • Wash plates with PBS, remove any residual remaining liquid and Incubate with 50 μL goat anti rabbit antibody (1 in 800 dilution in 2% BSA), for 1 hour at room temperature. • Wash plates with PBS, remove any residual remaining liquid and add 50 μL mixed SuperSignal Pico substrate. • Incubate each plate for 5 minutes at room temperature shielding the plates from direct light (with a cover plate). Read plates with the luminescent detection. Results

Assay [2] has as its target Cdc7/ASK (Homo sapiens, UniProt O00311). In words: Cdc7 biochemical assay Method 3: off-chip mobility shift assay (MSA) run at Carna Biosciences. The arrangement: purchased Carna Biosciences; host or cells: baculovirus expression system. The note with it: MCM2 peptide 1000 nM, ATP 5 μM, 5 hours, read-out: Biochemical method 3 (pIC50) (converted). The protocol:
This protocol describes a method for assaying Cdc7/ASK for activity. The assay is an off-chip mobility shift assay (MSA) run at Carna Biosciences.
The test compound was dissolved in and diluted with dimethylsulfoxide (DMSO) to achieve 100-fold higher concentration which was specified by the sponsor. Then the solution was further 25-fold diluted with assay buffer to make the final test compound solution. Reference compounds for assay control were prepared similarly. 2. Kinase Cdc7/ASK: Full-length human Cdc7 [1-574(end) amino acids of accession number NP_003494.1] was co-expressed as N-terminal GST-fusion protein (92 kDa) with Dbf4(ASK) [1-674(end) amino acids of accession number NP_006707.1] using baculovirus expression system. GST-Cdc7 was purified by using glutathione sepharose chromatography. 3. Assay Reagents and Procedures Off-Chip Mobility Shift Assay (MSA) • 1) The […] were prepared with assay buffer (20 mM HEPES, 0.01% Triton X-100, 1 mM DTT, pH 7.5) and mixed and incubated in a well of polypropylene 384 well microplate for 5 hours at room temperature. • 2) […] of Termination Buffer (QuickScout Screening Assist MSA; Carna Biosciences) was added to the well. • 3) The reaction mixture was applied to LabChip system (Perkin Elmer), and the product and substrate peptide peaks were separated and quantitated. • 4) The kinase reaction was evaluated by the product ratio calculated from peak heights of product (P) and substrate (S) peptides (P/(P+S)). 4. Reaction Conditions
5. Data Analysis The readout value of reaction control (complete reaction mixture) was set as a 0% inhibition, and the readout value of background (Enzyme(−)) was set as a 100% inhibition, then the percent inhibition of each test solution was calculated. IC50 value was calculated from concentration vs. % Inhibition curves by fitting to a four parameter logistic curve. Results

Where a name gives a salt, the structure may show the parent alone.

Sequence of Cdc7 (O00311 whole entry): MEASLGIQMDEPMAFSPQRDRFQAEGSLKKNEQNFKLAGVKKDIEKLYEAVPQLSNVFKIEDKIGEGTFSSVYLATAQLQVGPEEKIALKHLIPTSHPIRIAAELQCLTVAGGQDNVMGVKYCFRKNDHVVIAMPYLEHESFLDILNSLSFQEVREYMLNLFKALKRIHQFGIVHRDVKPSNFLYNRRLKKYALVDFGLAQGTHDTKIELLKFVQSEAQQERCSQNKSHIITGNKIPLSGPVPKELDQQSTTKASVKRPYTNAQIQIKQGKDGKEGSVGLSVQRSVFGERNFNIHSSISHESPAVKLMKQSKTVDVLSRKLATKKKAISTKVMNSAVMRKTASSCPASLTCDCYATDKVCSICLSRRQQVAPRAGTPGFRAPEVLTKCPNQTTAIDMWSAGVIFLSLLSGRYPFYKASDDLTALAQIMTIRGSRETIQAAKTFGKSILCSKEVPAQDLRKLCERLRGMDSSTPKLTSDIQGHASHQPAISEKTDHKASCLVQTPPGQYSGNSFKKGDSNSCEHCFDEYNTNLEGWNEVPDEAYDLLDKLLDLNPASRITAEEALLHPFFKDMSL
Sequence of Cdc7 (Q9UBU7 whole entry partner): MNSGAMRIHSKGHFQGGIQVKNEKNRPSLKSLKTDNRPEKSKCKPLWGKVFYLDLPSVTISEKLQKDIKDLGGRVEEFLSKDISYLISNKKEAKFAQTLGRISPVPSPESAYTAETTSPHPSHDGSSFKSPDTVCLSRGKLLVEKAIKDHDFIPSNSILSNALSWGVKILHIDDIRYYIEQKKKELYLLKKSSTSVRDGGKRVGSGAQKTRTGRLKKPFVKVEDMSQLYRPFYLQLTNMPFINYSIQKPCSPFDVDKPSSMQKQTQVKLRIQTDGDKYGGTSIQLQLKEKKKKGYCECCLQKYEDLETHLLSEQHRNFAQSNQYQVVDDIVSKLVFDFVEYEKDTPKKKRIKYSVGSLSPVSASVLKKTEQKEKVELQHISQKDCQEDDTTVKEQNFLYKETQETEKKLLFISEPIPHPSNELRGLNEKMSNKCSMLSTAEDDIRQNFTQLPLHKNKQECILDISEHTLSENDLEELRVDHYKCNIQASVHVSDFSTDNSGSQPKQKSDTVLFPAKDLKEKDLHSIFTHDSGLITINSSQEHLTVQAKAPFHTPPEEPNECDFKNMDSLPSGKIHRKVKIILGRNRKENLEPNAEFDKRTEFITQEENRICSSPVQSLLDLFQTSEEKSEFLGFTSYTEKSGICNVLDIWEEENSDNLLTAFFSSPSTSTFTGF
Sequence of Cdc7/ASK (O00311 whole entry): as the sequence (O00311 whole entry) above
Sequence of Cdc7/ASK (Q9UBU7 whole entry partner): as the sequence (Q9UBU7 whole entry partner) above

As for `O=c1[nH]c(-c2scnc2Cl)nc(N2CCNCC(F)C2)c1Cl` (racemic) [Compound 71, 5-chloro-2-(4-chlorothiazol-5-yl)-4-(6-fluoro-1,4-diazepan-1-yl)-1H-pyrimidin-6-one hydrochloride], the EC50 in assay [1] is 251 nM. Further, the IC50 in assay [2] was 5.75 nM.
Take `O=c1[nH]c(-c2scnc2Cl)nc(N2CCNCC2C(F)F)c1Cl` (single isomer, unassigned) [Compound 69, 5-chloro-2-(4-chlorothiazol-5-yl)-4-[2-(difluoromethyl)piperazin-1-yl]-1H-pyrimidin-6-one hydrochloride]: in assay [1], the EC50 was 16.6 nM. Moreover, the IC50 in assay [2] was 3.39 nM.
Regarding `O=c1[nH]c(-c2scnc2Cl)nc(N2CCNCC2C(F)F)c1Cl` (single isomer, unassigned) [Compound 70, 5-chloro-2-(4-chlorothiazol-5-yl)-4-[2-(difluoromethyl)piperazin-1-yl]-1H-pyrimidin-6-one hydrochloride], the EC50 in assay [1] was 324 nM. For the same molecule, in assay [2], the IC50 was 6.76 nM.
On to `O=c1[nH]c(-c2scnc2Cl)nc(N2CCNCC(F)C2)c1Cl` (single isomer, unassigned) [Compound 72, 5-chloro-2-(4-chlorothiazol-5-yl)-4-(6-fluoro-1,4-diazepan-1-yl)-1H-pyrimidin-6-one hydrochloride], for which the EC50 in assay [1] is 95.5 nM. The IC50 in assay [2] was 3.8 nM.
The matching figures for `O=c1[nH]c(-c2scnc2Cl)nc(N2CCNCC(F)C2)c1Cl` (single isomer, unassigned) [Compound 73, 5-chloro-2-(4-chlorothiazol-5-yl)-4-(6-fluoro-1,4-diazepan-1-yl)-1H-pyrimidin-6-one hydrochloride]: 1320 nM and 10.2 nM.
With `O=c1[nH]c(-c2cn[nH]c2Cl)nc(N2CCNCC(F)(F)C2)c1Cl` [Compound 40, 5-chloro-2-(5-chloro-1H-pyrazol-4-yl)-4-(6,6-difluoro-1,4-diazepan-1-yl)-1H-pyrimidin-6-one hydrochloride], in assay [1], the EC50 was 195 nM. In addition, the IC50 in assay [2] is 3.72 nM.
As for `C[C@@H]1COCCN1c1nc(-c2cn[nH]c2Cl)[nH]c(=O)c1Cl` [Compound 42, 5-chloro-2-(5-chloro-1H-pyrazol-4-yl)-4-[(3R)-3-methylmorpholin-4-yl]-1H-pyrimidin-6-one], the EC50 in assay [1] was 389 nM. In addition, the IC50 in assay [2] was 3.8 nM.
`Cc1nocc1-c1nc(N2CCNC[C@H]2C)c(Cl)c(=O)[nH]1` [Compound 49, 5-chloro-2-(3-methylisoxazol-4-yl)-4-[(2R)-2-methylpiperazin-1-yl]-1H-pyrimidin-6-one]: the EC50 in assay [1] was 4570 nM. The IC50 in assay [2] was 51.3 nM.
The matching figures for `C[C@@H]1CNCCN1c1nc(-c2ccnn2C)[nH]c(=O)c1Cl` [Compound 50, 5-chloro-4-[(2R)-2-methylpiperazin-1-yl]-2-(2-methylpyrazol-3-yl)-1H-pyrimidin-6-one]: 3630 nM and 43.7 nM.
The matching figures for `Cc1nccn1-c1nc(N2CCOC[C@H]2C)c(Cl)c(=O)[nH]1` [Compound 56, 5-chloro-2-(2-methylimidazol-1-yl)-4-[(3R)-3-methylmorpholin-4-yl]-1H-pyrimidin-6-one]: 4170 nM and 44.7 nM.
Regarding `Cc1ncsc1-c1nc(N2CCNCC(F)(F)C2)c(Cl)c(=O)[nH]1` [Compound 57, 5-chloro-4-(6,6-difluoro-1,4-diazepan-1-yl)-2-(4-methylthiazol-5-yl)-1H-pyrimidin-6-one hydrochloride], in assay [1], the EC50 was 724 nM. The IC50 in assay [2] is 6.46 nM.
Consider `Cc1ncsc1-c1nc(N2CCNC[C@H]2C)c(Cl)c(=O)[nH]1` [Compound 58, 5-chloro-4-[(2R)-2-methylpiperazin-1-yl]-2-(4-methylthiazol-5-yl)-1H-pyrimidin-6-one], for which the EC50 in assay [1] is 331 nM. The IC50 in assay [2] is 7.08 nM.
The matching figures for `Cc1ncsc1-c1nc(N2CCOC[C@H]2C)c(Cl)c(=O)[nH]1` [Compound 59, 5-chloro-4-[(3R)-3-methylmorpholin-4-yl]-2-(4-methylthiazol-5-yl)-1H-pyrimidin-6-one]: 724 nM and 7.41 nM.
The matching figures for `Cc1ncsc1-c1nc(N2CCNCC2C(F)(F)F)c(Cl)c(=O)[nH]1` (stereo not shown) [Compound 60, 5-chloro-2-(4-methylthiazol-5-yl)-4-[2-(trifluoromethyl)piperazin-1-yl]-1H-pyrimidin-6-one]: 1230 nM and 20 nM.
For `Cc1ncsc1-c1nc(N2CCNCC2C(F)F)c(Cl)c(=O)[nH]1` (stereo not shown) [Compound 61, 5-chloro-4-[2-(difluoromethyl)piperazin-1-yl]-2-(4-methylthiazol-5-yl)-1H-pyrimidin-6-one], the EC50 in assay [1] is 162 nM. Moreover, the IC50 in assay [2] was 12.9 nM.
`Cc1ncsc1-c1nc(N2CCNCC(F)C2)c(Cl)c(=O)[nH]1` (stereo not shown) [Compound 62, 5-chloro-4-(6-fluoro-1,4-diazepan-1-yl)-2-(4-methylthiazol-5-yl)-1H-pyrimidin-6-one]: the EC50 in assay [1] was 977 nM. The IC50 in assay [2] is 21.4 nM.
Consider `O=c1[nH]c(-c2scnc2C(F)(F)F)nc(N2CCNCC(F)(F)C2)c1Cl` [Compound 63, 5-chloro-4-(6,6-difluoro-1,4-diazepan-1-yl)-2-[4-(trifluoromethyl)thiazol-5-yl]-1H-pyrimidin-6-one], for which, in assay [1], the EC50 was 525 nM. In addition, the IC50 in assay [2] was 5.5 nM.
The matching figures for `C[C@@H]1COCCN1c1nc(-c2scnc2Cl)[nH]c(=O)c1Cl` [Compound 64, 5-chloro-2-(4-chlorothiazol-5-yl)-4-[(3R)-3-methylmorpholin-4-yl]-1H-pyrimidin-6-one]: 166 nM and 4.17 nM.
The matching figures for `C[C@@H]1CNCCN1c1nc(-c2scnc2Cl)[nH]c(=O)c1Cl` [Compound 65, 5-chloro-2-(4-chlorothiazol-5-yl)-4-[(2R)-2-methylpiperazin-1-yl]-1H-pyrimidin-6-one hydrochloride]: 38 nM and 3.89 nM.
The matching figures for `O=c1[nH]c(-c2scnc2Cl)nc(N2CCNCC(F)(F)C2)c1Cl` [Compound 66, 5-chloro-2-(4-chlorothiazol-5-yl)-4-(6,6-difluoro-1,4-diazepan-1-yl)-1H-pyrimidin-6-one hydrochloride]: 75.9 nM and 4.27 nM.
